Source: patent US6410249B1, “Odorant receptors” (priority 1999, dated 2002)
Entries after “also recorded” stand apart in the source; their conditions may differ. Where two headings read alike, the source gives them in different places.

Tests used:
[1] = target: T1, receptor 5.24 (Carassius auratus, UniProt Q9PW88); experiment: biochemical; format: binding; details: for binding to receptor 5.24, in words: comparative binding studies
T1 construct: The receptor 5.24 full length cDNA detects 1-2 bands in genomic DNA blots; expressed in transfected cells; host or cells: HEK 293 cells expressing SV40 large T antigen (293-TSA)
T1 sequence (Q9PW88 25-877): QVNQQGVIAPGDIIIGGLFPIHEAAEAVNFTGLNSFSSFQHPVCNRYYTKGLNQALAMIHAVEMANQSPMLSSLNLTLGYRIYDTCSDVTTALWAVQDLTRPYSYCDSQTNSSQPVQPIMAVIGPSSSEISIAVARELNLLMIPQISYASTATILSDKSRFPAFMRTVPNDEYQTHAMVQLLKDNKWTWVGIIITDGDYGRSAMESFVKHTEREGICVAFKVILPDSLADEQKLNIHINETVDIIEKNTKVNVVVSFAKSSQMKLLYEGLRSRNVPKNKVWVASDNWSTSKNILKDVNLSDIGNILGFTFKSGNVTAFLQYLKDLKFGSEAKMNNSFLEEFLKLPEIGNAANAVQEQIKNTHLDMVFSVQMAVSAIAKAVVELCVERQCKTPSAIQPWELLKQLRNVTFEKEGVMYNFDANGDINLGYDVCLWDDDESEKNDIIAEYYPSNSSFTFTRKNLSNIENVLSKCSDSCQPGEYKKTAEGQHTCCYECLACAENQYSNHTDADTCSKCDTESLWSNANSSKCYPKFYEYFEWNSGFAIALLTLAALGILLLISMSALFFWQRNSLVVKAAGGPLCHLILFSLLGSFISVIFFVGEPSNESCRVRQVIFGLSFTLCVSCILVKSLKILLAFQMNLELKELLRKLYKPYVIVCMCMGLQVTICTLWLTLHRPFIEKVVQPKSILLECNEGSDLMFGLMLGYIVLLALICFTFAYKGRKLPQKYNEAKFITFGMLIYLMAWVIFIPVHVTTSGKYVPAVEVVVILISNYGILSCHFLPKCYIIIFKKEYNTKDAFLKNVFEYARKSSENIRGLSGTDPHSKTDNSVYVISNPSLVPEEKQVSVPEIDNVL
Procedure: Structure-Activity Properties of Compounds Interacting with the Cloned Goldfish Amino Acid Odorant Receptor. An understanding of how odorant receptors are used to encode olfactory information requires a characterization of the odorant specificities of individual receptor types. We therefore wished to determine the relative specificity of receptor 5.24 for structurally related ligands. […] Briefly, 3H-arginine binding to membranes from receptor 5.24-expressing HEK 293 cells was assayed in the absence or presence of varying concentrations of competitor ligands.
Mammalian Cell Culture and DNA Transfections. For cell transfections, the receptor 5.24 cDNA insert was subcloned into two expression vectors: CMVI, which utilizes a human cytomegalovirus (CMV) immediate early promoter-enhancer plus the CMV intron A sequence to drive expression, and 608RX-2.2L, which is similar to CMVI except the cDNA insert is followed by an internal ribosome entry site (IRES)—enhanced green fluorescent protein (EGFP) coding sequence; 608RX-2.2L also contains a puromycin resistance gene. For transient assays, HEK 293 cells expressing the SV40 large T antigen (293 TSA cells) were transfected with the CMVI-receptor 5.24 or CMVI control plasmid using lipofectamine (Life Technologies) and harvested at 48 hours for membrane preparations. For stable cell lines, 293-TSA cells were transfected with the 608RX-2.2L-receptor 5.24 plasmid or a control 608RX-2.2L plasmid and selected in puromycin. Colonies showing high levels of EGFP fluorescence (as judged by epifluorescence microscopy) were picked, expanded, and screened for 3H-L-arginine binding (see below).
Membrane Preparations and Ligand Binding Assays. Membranes for ligand binding assays were prepared by washing confluent cells three times with phosphate buffered saline (PBS), detaching cells with a PBS-based enzyme-free dissociation solution, and resuspending cells in ice-cold 5.0 mM Hepes, pH 7.4, 1.0 mM EDTA, 1.0 μg/ml leupeptin, 0.5 mM PMSF. All subsequent manipulations were performed on ice. After a 30 min incubation, the cell suspension was homogenized and centrifuged at 100,000×g for 30 min. Cell membrane pellets were washed twice by resuspension and centrifugation in binding buffer (20 mM Hepes, pH 7.4, 1.0 mM EDTA, 2.0 mM MgCl2, 1.0 μg/ml leupeptin, 0.5 mM PMSF), resuspended in binding buffer, and frozen at −80° C.
Saturation binding assays were performed using 20-25 μg of membrane protein in a final volume of 100 μl binding buffer and increasing concentrations of [2,3-3H] L-arginine (specific activity=40 Ci/mmol; Dupont NEN). Non-specific binding was measured in the presence of 500 μM unlabeled L-arginine. Competition assays were performed with 500 nM [2,3-3H] L-arginine and increasing concentrations of competitor ligands. All incubations were performed at 4° C. for 60 min and terminated by rapid filtration through Whatman GF/C filters pretreated with ice cold 0.1% polyethyleneimine. Filters were washed three times with 4.0 ml ice cold 20 mM Hepes, pH 7.4, and retained radioactivity was measured by scintillation counting.

[2] = target: T1, receptor 5.24; experiment: evoked currents in Xenopus oocytes expressing receptor 5.24 (two-electrode voltage clamp); format: cell-based, goldfish
Description: Identification by Expression Cloning of a cDNA Encoding a Goldfish Odorant Receptor. RNA was synthesized from pools of goldfish olfactory cDNA clones (900 individual clones per pool) and injected into Xenopus oocytes together with synthetic RNAs encoding GIRK and Gaolf. Oocytes were then screened for responses upon exposure to odorant cocktails containing amino acids, bile acids, or sex pheromones. […] The response to amino acids was biphasic, beginning with an oscillating inward current above the basal inward K+ current, followed by a decline in inward current to below the basal level. Such a biphasic effect is thought to be caused by Gaq-mediated activation of phospholipase C (responsible for the intial inward current via IP3) and protein kinase C (leading to suppression of the K+ current through phosphorylation of GIRK channel subunits) (Sharon et al., 1997).
Iterative subdivision of pool 19 by sib-selection allowed the isolation of a single clone encoding a receptor, designated receptor 5.24.
Oocytes were removed from anesthetized Xenopus laevis and treated with collagenase. Forty nanograms of cRNA from each cDNA library pool (˜40 pg cRNA/clone) was injected per oocyte, together with cRNAs encoding Gaolf and the GIRK subunits Kir 3.1 and Kir 3.4 (˜30 pg each). Approximately 30 pools were assayed before these primary screens were halted. Injected oocytes were incubated at 17° C. for over 80 hours prior to electrophysiological recordings. Recordings were performed by two-electrode voltage clamping using an Axoclamp-2A amplifier (Axon Instruments) or a Dagan CA-1 amplifier (Dagan Corp.). Data acquisition and analysis were performed using pCLAMP software (Axon Instruments). Membrane potential was held at −80 mV. For trials involving GIRK, oocytes were first perfused with Na-MBSH (88 mM NaCl, 1 mM KCl, 2.4 mM NaHCO3, 10 mM Hepes, pH 7.5, 0.82 mM MgSO4[7H2O], 0.33 mM Ca[NO3]2[4H2O], 0.41 mM CaCl2[2H2O]), and then switched into K-MBSH, which contains elevated K+ (88 mM KCl, 1 mM NaCl) until the basal current had stabilized (˜45 seconds) before challenging with agonist. Recordings on oocytes injected with receptor 5.24 in the absence of Gaolf and/or GIRK subunits were performed in Na-MBSH. Oocytes were exposed to solutions containing different agonists by switching bathing solutions with an 8 channel valve (Hamilton).

[3] = displacement of 3H-L-arginine from membranes of HEK 293 cells expressing receptor 5.24, read-out: Ki (binding affinity)
[4] = 3H-arginine displacement, read-out: Ki
[5] = read-out: Ki (binding affinity), displacement of 3H-L-arginine from membranes of HEK 293 cells expressing receptor 5.24

SMILES	binding to receptor 5.24, in words [1]	activation of receptor 5.24 (evoked currents), in words [2]	Ki [1, 3] [µM]	further results
N[C@@H](Cc1ccc(O)cc1)C(=O)O [L-Tyrosine]	low affinities	little or no response	–	Ki [1]: 16 µM
NCC(=O)O [L-Glycine]	–	–	3.9	–
NCCS(=O)(=O)O [Taurine]	no specific interactions	–	> 1000	Ki [1, 4]: > 1000 µM
NC(=O)CC[C@H](N)C(=O)O [L-Glutamine]	–	–	0.32	–
C[C@H](N)C(=O)O [L-Alanine]	–	smaller responses	5.6	–
C[C@@H](O)[C@H](N)C(=O)O [L-Threonine]	–	smaller responses	3.2	–
N[C@@H](Cc1c[nH]c2ccccc12)C(=O)O [L-Tryptophan]	low affinities	little or no response	4.1	–
N=C(N)NCCCC[C@H](N)C(=O)O [L-Homoarginine]	–	–	–	Ki [1]: 1.63 µM
CSCC[C@H](N)C(=O)O [L-Methionine]	–	smaller responses	0.81	–
NCCC[C@H](N)C(=O)O [L-Ornithine]	–	–	–	Ki [1, 4]: 1 µM
NCCCC(=O)O [γ-Aminobutyric Acid (GABA), γ-Aminobutyric Acid]	no specific interactions	–	–	Ki [1]: > 1000 µM; Ki [1, 5]: > 1000 µM
N[C@@H](CC(=O)O)C(=O)O [L-Aspartate]	–	–	–	Ki [1]: 27 µM
N[C@@H](CCC(=O)O)C(=O)O [L-Glutamate]	–	–	6.7	fold decrease in affinity / displacement relative to arginine or lysine ([1]; 3H-arginine displacement): approximately 80 fold; activation of receptor 5.24 (evoked currents), in words ([2]; listed as Glutamate): does not appear to activate; activation of receptor 5.24 (evoked currents), in words ([2]; listed as glutamate): little or no response; also recorded: not activated
[Ca+2] [calcium]	–	not activated	–	–
NC(=O)C[C@H](N)C(=O)O [L-Asparagine]	–	–	2.1	–
N[C@@H](Cc1c[nH]cn1)C(=O)O [L-Histidine]	low affinities	little or no response	–	Ki [1]: 13 µM
O=C(O)[C@@H]1CCCN1 [L-Proline]	low affinities	–	58	–
NCCCCCN [Cadaverine]	essentially no binding	–	> 1000	Ki [1, 4]: > 1000 µM
NCCCCN [Putrescine]	–	–	> 1000	–
CC[C@H](C)[C@H](N)C(=O)O [L-Isoleucine]	–	smaller responses	2.2	–
N[C@@H](CS)C(=O)O [L-Cysteine]	–	–	0.53	–
N=C(N)NCCCCN [Agmatine]	displaces 3H-arginine very poorly; also recorded: essentially no binding	–	–	Ki [1]: > 1000 µM; Ki [1, 5]: > 1000 µM
NCCC(=O)N[C@@H](Cc1cnc[nH]1)C(=O)O [Carnosine]	no specific interactions	–	> 1000	Ki [1, 4]: > 1000 µM
NC(=O)NCCC[C@H](N)C(=O)O [L-Citruline]	–	–	0.96	–
CC(C)[C@H](N)C(=O)O [L-Valine]	–	–	6.2	–
CC(C)C[C@H](N)C(=O)O [L-Leucine]	–	–	4.4	–
COC(=O)[C@@H](N)CCCNC(=N)N[N+](=O)[O-] [L-NAME]	modest affinity	–	1.02	–
N[C@@H](Cc1ccccc1)C(=O)O [L-Phenylalanine]	low affinities	little or no response	5.8	–
